Measured values reported in patent US20260001914A1, “MACROCYCLIC PEPTIDES TARGETING KRAS” (Merck Sharp & Dohme LLC, priority 2022, published 2026).
*1 amine or outer side, *2 acyl side, *3 side chain or, on linkers, in order; H or OH if unused. Where a SMILES comes first, the peptide text is derived from it. Bridges are numbered along the chain shown (N, C = ends). [ ]: non-standard residue; d: D form. X48 = CCCC[C@@H](/C=C\[C@@H](Cc1cccnc1)C(=O)[*:2])N[*:1]; Phe(4-guanidino) = N=C(N)Nc1ccc(C[C@H](N)C(=O)O)cc1; X18 = CNC(=N)N(C)c1ccc(C[C@H](N[*:1])C(=O)[*:2])cc1; Ala(pyrimidin-5-yl) = N[C@@H](Cc1cncnc1)C(=O)O; X6 = O=C([C@H](Cc1cnn(C2COC2)c1)N[*:1])[*:2]; X3 = CN([C@@H](Cc1cncnc1)C(=O)[*:2])[*:1]; NMeNva(5,5-F2) = CN[C@@H](CCC(F)F)C(=O)O; Phe(4-NH2) = Nc1ccc(C[C@H](N)C(=O)O)cc1; Nle(5,5-F2) = CC(F)(F)CC[C@H](N)C(=O)O; NHCH2CH2SCH2CO = O=C(CSCCN[*:1])[*:2]; X61 = O=C(C12COC(CN[*:1])(C1)C2)[*:2]; Phe(2-F) = N[C@@H](Cc1ccccc1F)C(=O)O; NMe3Pal = CN[C@@H](Cc1cccnc1)C(=O)O; X1 = O=C(C12CC(CN[*:1])(C1)C2)[*:2]; NMeOrn(Me) = CNCCC[C@H](NC)C(=O)O; Ala(cPr) = N[C@@H](CC1CC1)C(=O)O; NMeF = CN[C@@H](Cc1ccccc1)C(=O)O; PhLac = O=C(O)[C@@H](O)Cc1ccccc1; 3Pal = N[C@@H](Cc1cccnc1)C(=O)O; d3Pal = N[C@H](Cc1cccnc1)C(=O)O; Ahp(2) = CCCCC[C@H](N)C(=O)O; Cba = N[C@@H](CC1CCC1)C(=O)O; hLeu = CC(C)CC[C@H](N)C(=O)O; αMeC = C[C@](N)(CS)C(=O)O; NMeA = CN[C@@H](C)C(=O)O; Nle = CCCC[C@H](N)C(=O)O; AEEA = NCCOCCOCC(=O)O

target: KRAS-G12D protein (Homo sapiens, UniProt P01116, G12D); assay: SOS-mediated nucleotide exchange assay (BODIPY-GDP / Tb-streptavidin TR-FRET); type: biochemical
Sequence (P01116 1-188 isoform P01116-2 G12D): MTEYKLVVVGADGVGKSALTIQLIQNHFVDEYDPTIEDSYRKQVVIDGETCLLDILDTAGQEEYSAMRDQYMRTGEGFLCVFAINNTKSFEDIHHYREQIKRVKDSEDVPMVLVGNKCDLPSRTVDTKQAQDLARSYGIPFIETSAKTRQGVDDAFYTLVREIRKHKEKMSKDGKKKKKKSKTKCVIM

Q: Which EC50 does the source give for CCCCC[C@@H]1NC(=O)[C@H](Cc2ccc(OC)cc2)NC(=O)[C@H](CC2CCC2)NC(=O)[C@H](Cc2ccc(NC(=N)N)cc2)NC(=O)[C@H](CCCNC)N(C)C(=O)[C@H](Cc2ccccc2)NC(=O)CSC[C@@](C)(C(N)=O)NC(=O)[C@H](Cc2ccccc2)N(C)C1=O [compound 385, cyclo(F-NMeOrnMe-Phe4Gn-cBuA-TyrOMe-Ahp-NMeF-aMeCl-ClAc)] ({CH2CO}-F[NMeOrn(Me)][Phe(4-guanidino)][Cba]Y(Me)[Ahp(2)][NMeF][αMeC]-NH2; thioether N-8) here?
A: The EC50 was 19.7 nM.

Q: CCCC[C@@H]1NC(=O)[C@H](Cc2ccccc2F)NC(=O)[C@H](CC2CCC2)NC(=O)[C@@H](Cc2cccnc2)NC(=O)[C@H](CCCNC(=N)N)NC(=O)[C@H](Cc2ccccc2)NC(=O)C23COC(CNC(=O)[C@H](Cc4cccnc4)N(C)C1=O)(C2)C3 [compound 106, cyclo(F-R-d3Pal-cBuA-Phe2F-Nle-NMe3Pal-amOBCH)] (cyclo(FR[d3Pal][Cba][Phe(2-F)][Nle][NMe3Pal][X61])) was tested. Which EC50 did it give?
A: Its EC50 is 6820 nM.

Q: How did the EC50 turn out when CCCC[C@@H]1NC(=O)[C@H](COC)NC(=O)[C@H](CC2CCC2)NC(=O)[C@H](Cc2cccnc2)NC(=O)[C@H](CCCNC(=N)N)NC(=O)[C@H](Cc2ccccc2)NC(=O)CSC[C@@](C)(C(N)=O)NC(=O)[C@H](Cc2ccccc2)N(C)C1=O [compound 52, cyclo(F-R-3Pal-cBuA-SerOMe-Nle-NMeF-aMeCl-ClAc)] ({CH2CO}-FR[3Pal][Cba]S(Me)[Nle][NMeF][αMeC]-NH2; thioether N-8) was run?
A: Its EC50 is 943 nM.

Q: How did the EC50 turn out when CC(C)CC[C@@H]1NC(=O)[C@H](Cc2ccccc2F)NC(=O)[C@H](CC2CC2)NC(=O)[C@H](Cc2cncnc2)NC(=O)[C@H](CCC(F)F)N(C)C(=O)[C@H](Cc2ccccc2)OC(=O)C23CC(CNC(=O)[C@H](Cc4ccccc4)N(C)C1=O)(C2)C3 [compound 217, cyclo(FLac-NMeNvaF2-PyrimAla-cPrA-Phe2F-hL-NMeF-amBCP)] (cyclo([Ala(cPr)][Phe(2-F)][hLeu][NMeF][X1][PhLac][NMeNva(5,5-F2)][Ala(pyrimidin-5-yl)])) was run?
A: The EC50 was 173 nM.

Q: How did the EC50 turn out when CCCC[C@@H]1NC(=O)[C@H](Cc2ccc(O)cc2)NC(=O)[C@H](CC(C)C)NC(=O)[C@H](Cc2ccc(N)cc2)NC(=O)[C@H](CCCNC(=N)N)NC(=O)[C@H](Cc2ccccc2)NC(=O)CSCCNC(=O)[C@H](Cc2ccccc2)N(C)C1=O [compound 79, cyclo(F-R~Phe4NH2-L-Y-Nle-NMeF-Cysteamine-ClAc)] (cyclo(FR[Phe(4-NH2)]LY[Nle][NMeF][NHCH2CH2SCH2CO])) was run?
A: The EC50 was 2360 nM.

Q: Which EC50 does the source give for CCCC[C@@H]1NC(=O)[C@H](Cc2cccnc2)NC(=O)[C@H](C)N(C)C(=O)[C@H](Cc2ccccc2)OC(=O)C23CC(CNC(=O)[C@H](Cc4cncnc4)N(C)C(=O)[C@H](CCCC)NC(=O)[C@H](Cc4ccccc4F)NC1=O)(C2)C3 [compound 401, cyclo(FLac-NMeA-3Pal-Nle-Phe2F-Nle-NMeAlaPyrim-amBCP)] (cyclo([3Pal][Nle][Phe(2-F)][Nle][X3][X1][PhLac][NMeA])) here?
A: Its EC50 is 29 nM.

Q: Which EC50 does the source give for CCCC[C@@H]1NC(=O)[C@H](Cc2ccc(N(C)C(=N)NC)cc2)NC(=O)[C@H](C)N(C)C(=O)[C@H](Cc2ccccc2)OC(=O)CSC[C@@](C)(C(N)=O)NC(=O)[C@H](Cc2cccnc2)N(C)C(=O)[C@H](CCCC)NC(=O)[C@H](Cc2ccccc2F)NC1=O [compound 397, cyclo(FLac-NMeA-Phe4GnMeMe-Nle-Phe2F-Nle-NMe3Pal-aMeCl-ClAc)] ({CH2CO}-[PhLac][NMeA][X18][Nle][Phe(2-F)][Nle][NMe3Pal][αMeC]-NH2; thioether N-8) here?
A: Its EC50 is 2.73 nM.

Q: Which EC50 does the source give for CCCCC[C@@H]1NC(=O)[C@H](Cc2ccc(O)cc2)NC(=O)[C@H](CC(C)C)NC(=O)[C@H](Cc2ccc(O)cc2)NC(=O)[C@H](CCCNC(=N)N)NC(=O)[C@H](Cc2ccccc2)NC(=O)CSC[C@@H](C(=O)NCCOCCOCC(N)=O)NC(=O)[C@H](Cc2ccccc2)N(C)C1=O [compound 57, cyclo(F-R-Y-L-Y-Ahp-NMeF-C3-ClAc)] ({CH2CO}-FRYLY[Ahp(2)][NMeF]C[AEEA]-NH2; thioether N-8) here?
A: The EC50 was 482 nM.

Q: With C[C@H]1C(=O)N[C@@H](Cc2cnn(C3COC3)c2)C(=O)N[C@@H](CC2CC2)C(=O)N[C@@H](Cc2ccccc2F)C(=O)N[C@@H](CCC(C)(F)F)C(=O)N(C)[C@@H](Cc2ccccc2)C(=O)NCC23CC(C2)(C3)C(=O)O[C@@H](Cc2ccccc2)C(=O)N1C [compound 291, cyclo(FLac-NMcA-AlaPyzlOx-cPrA-Phe2F-Nle3F2-NMeF-amBCP)] (cyclo([Ala(cPr)][Phe(2-F)][Nle(5,5-F2)][NMeF][X1][PhLac][NMeA][X6])) as the molecule, how does the EC50 read?
A: The EC50 was 1 nM.

Q: For CCCCC[C@@H]1NC(=O)[C@H](Cc2ccc(OC)cc2)NC(=O)[C@H](CC2CCC2)NC(=O)[C@H](Cc2cccnc2)NC(=O)[C@H](CCCNC(=N)N)NC(=O)[C@H](Cc2ccccc2)OC(=O)C23CC(CNC(=O)[C@H](Cc4ccccc4)N(C)C1=O)(C2)C3 [compound 211, cyclo(FLac-R-3Pal-cBuA-TyrOMe-Ahp-NMeF-amBCP)] (cyclo([PhLac]R[3Pal][Cba]Y(Me)[Ahp(2)][NMeF][X1])), which EC50 is on record?
A: The EC50 was 10.8 nM.

Q: For CCCC[C@H]1/C=C\[C@@H](Cc2cccnc2)C(=O)NCC23CC(C2)(C3)C(=O)O[C@@H](Cc2ccccc2)C(=O)N(C)[C@@H](C)C(=O)N[C@@H](Cc2cncnc2)C(=O)N[C@@H](CCCC)C(=O)N[C@@H](Cc2ccccc2F)C(=O)N1 [SEQ ID NO: 137, cyclo(FLac-NMeA- PyrimAla-Nle-Phe2F- Nlecalken3Pal-amBCP)] (cyclo([NMeA][Ala(pyrimidin-5-yl)][Nle][Phe(2-F)][X48][X1][PhLac])), which EC50 is on record?
A: Its EC50 is 590 nM.
